Test results published in patent publication US6653529B2, “Use of the maize X112 mutant ahas 2 gene and imidazolinone herbicides for selection of transgenic monocots, maize, rice and wheat plants resistant to the imidazolinone herbicides” (BASF Aktiengesellschaft, priority 2000, dated 2003).

Key:
[1] = system: AHAS (acetohydroxyacid synthase) in extracts of Nortai, Line 26 and Line 29; assay: In vitro AHAS activity assay; assay type: biochemical, rice; conditions: a significant portion of the enzyme activity; compared with normal enzyme from Nortai; FIG. 2
Experimental: Previously published procedures were used for the extraction and in vitro assay for AHAS activity (Singh et al. 1988). Lower portions of the shoots were used as the source of plant tissue for the assay. The desalted crude extracts were used for the in vitro enzyme assays. Acetolactate produced by the enzyme was converted to acetoin, which was measured by the Westerfield assay system.
In vitro AHAS assays were performed to understand the basis of herbicide tolerance in the transgenic plants. Previously published procedure was used for the extraction and in vitro assay for AHAS activity (Singh et al. 1988). The lower portions of the shoots were used as the source of plant tissue for the assay. The desalted crude extracts were used for the in vitro enzyme assays. Acetolactate produced by the enzyme was converted to acetoin, which was measured by the Westerfield assay system (Westerfield 1945). The specific activity of AHAS was about 30% higher in Line 26 (67 nmoles/mg protein/h) and Line 29 (64 nmoles/mg protein/h) compared to the activity in Nortai (Nt) (50 nmoles/mg protein/h).

transgenic rice Line 26 = assay: Response of rice plants to various herbicides, seed set in greenhouse; assay type: in vivo; conditions: post-emergence, 1× g ai/ha: PURSUIT 62.5, CADRE 32, ARSENAL 24, RAPTOR 32, SCEPTER 125, ACCENT 35, CLASSIC 5, AC322,140 20, LONDAX 68
Excerpt: (§1) A total of 9 herbicides, 5 imidazolinones, two rice herbicides and ACCENT® (nicosulfuron) and CLASSIC® (clorimuron-ethyl) were applied in this study. Materials and methods were basically the same as described above, except that instead of 6″ pots, flats with 18 (3″×3″ per cell) cells were used, and 10-12 seeds were planted to one 3″×3″ cell. Ten plants were maintained in one cell in the post-emergence application. Each herbicide was sprayed at 4 different rates, 1, 2, 4, and 6×, as either pre or post-emergence applications with three replications per treatment. The name and amount of herbicide applied in this experiment and information relevant to their commercial applications are listed in Table 3. For simplicity and convenience, the lowest concentration used is referred as 1× rate, 2, 4 and 6× rates can be calculated as multiples of 1×.
(§2) To monitor plant response to various herbicides, data on fresh weight was collected. For pre-emergence applications, all plants from one cell were harvested 32 days after spraying (36-day old plants) and weighed. Twenty-nine days after herbicide application, 5 plants (44-day old plants) from each cell in the post-emergence application, were cut and weighed individually. Mean fresh weight for each treatment was calculated over three replications. The remaining 5 plants were grown in the greenhouse to maturity at which time, panicles of 3 plants were collected, and number of filled seeds and number of total kernels were counted to determine percentage of seed set.

[2] = system: untransformed Nt rice plants; assay: as above; assay type: in vivo; conditions: post-emergence, 1× g ai/ha: PURSUIT 62.5, CADRE 32, ARSENAL 24, RAPTOR 32, SCEPTER 125, ACCENT 35, CLASSIC 5, AC322,140 20, LONDAX 68
Excerpt: as §1, §2

transgenic rice Line 29 = assay: as above; assay type: in vivo; conditions: post-emergence, 1× g ai/ha: PURSUIT 62.5, CADRE 32, ARSENAL 24, RAPTOR 32, SCEPTER 125, ACCENT 35, CLASSIC 5, AC322,140 20, LONDAX 68
Excerpt: as §1, §2

| SMILES | % seed-set (transgenic rice Line 26; 1× rate) [%] | No. filled seeds/3 panicles (transgenic rice Line 26; 1× rate) | Total No. of kernels/3 panicles (transgenic rice Line 26; 1× rate) | % seed-set (transgenic rice Line 26; 2× rate) [%] | No. filled seeds/3 panicles (transgenic rice Line 26; 2× rate) | Total No. of kernels/3 panicles (transgenic rice Line 26; 2× rate) | % seed-set (transgenic rice Line 26; 4× rate) [%] | No. filled seeds/3 panicles (transgenic rice Line 26; 4× rate) | Total No. of kernels/3 panicles (transgenic rice Line 26; 4× rate) | % seed-set (transgenic rice Line 26; 6× rate) [%] | No. filled seeds/3 panicles (transgenic rice Line 26; 6× rate) | Total No. of kernels/3 panicles (transgenic rice Line 26; 6× rate) | % seed-set ([2]; 1× rate) [%] | No. filled seeds/3 panicles ([2]; 1× rate) | Total No. of kernels/3 panicles ([2]; 1× rate) | % seed-set ([2]; 2× rate) [%] | No. filled seeds/3 panicles ([2]; 2× rate) | Total No. of kernels/3 panicles ([2]; 2× rate) | % seed-set ([2]; 4× rate) [%] | No. filled seeds/3 panicles ([2]; 4× rate) | further results |
| --- | --- | --- | --- | --- | --- | --- | --- | --- | --- | --- | --- | --- | --- | --- | --- | --- | --- | --- | --- | --- | --- |
| CC(C)C1(C)N=C(c2ncccc2C(=O)O)NC1=O (stereo not shown) [ARSENAL ®, imazapyr] | 85 | 156 | 183 | 77 | 132 | 170 | 6 | 10 | 170 | 1 | 2 | 178 | 0 | 0 | 0 | 0 | 0 | 0 | 0 | 0 | inhibition of AHAS activity from tolerant Line 26 and Line 29 [1]: insensitive to inhibition; Total No. of kernels/3 panicles ([2]; 4× rate): 0; % seed-set ([2]; 6× rate): 0%; No. filled seeds/3 panicles ([2]; 6× rate): 0; Total No. of kernels/3 panicles ([2]; 6× rate): 0; % seed-set (transgenic rice Line 29; 1× rate): 90%; No. filled seeds/3 panicles (transgenic rice Line 29; 1× rate): 122; Total No. of kernels/3 panicles (transgenic rice Line 29; 1× rate): 137; % seed-set (transgenic rice Line 29; 2× rate): 81%; No. filled seeds/3 panicles (transgenic rice Line 29; 2× rate): 116; Total No. of kernels/3 panicles (transgenic rice Line 29; 2× rate): 144; % seed-set (transgenic rice Line 29; 4× rate): 26%; No. filled seeds/3 panicles (transgenic rice Line 29; 4× rate): 41; Total No. of kernels/3 panicles (transgenic rice Line 29; 4× rate): 179; % seed-set (transgenic rice Line 29; 6× rate): 19%; No. filled seeds/3 panicles (transgenic rice Line 29; 6× rate): 27; Total No. of kernels/3 panicles (transgenic rice Line 29; 6× rate): 140 |
| Cc1cnc(C2=NC(=O)C(C)(C(C)C)N2)c(C(=O)O)c1 (stereo not shown) [CADRE ®, imazameth] | 84 | 133 | 159 | 95 | 153 | 161 | 87 | 124 | 143 | 77 | 131 | 169 | 98 | 92 | 94 | 83 | 76 | 82 | 0 | 0 | Total No. of kernels/3 panicles ([2]; 4× rate): 0; % seed-set ([2]; 6× rate): 0%; No. filled seeds/3 panicles ([2]; 6× rate): 0; Total No. of kernels/3 panicles ([2]; 6× rate): 0; % seed-set (transgenic rice Line 29; 1× rate): 88%; No. filled seeds/3 panicles (transgenic rice Line 29; 1× rate): 154; Total No. of kernels/3 panicles (transgenic rice Line 29; 1× rate): 175; % seed-set (transgenic rice Line 29; 2× rate): 86%; No. filled seeds/3 panicles (transgenic rice Line 29; 2× rate): 143; Total No. of kernels/3 panicles (transgenic rice Line 29; 2× rate): 166; % seed-set (transgenic rice Line 29; 4× rate): 82%; No. filled seeds/3 panicles (transgenic rice Line 29; 4× rate): 126; Total No. of kernels/3 panicles (transgenic rice Line 29; 4× rate): 154; % seed-set (transgenic rice Line 29; 6× rate): 80%; No. filled seeds/3 panicles (transgenic rice Line 29; 6× rate): 127; Total No. of kernels/3 panicles (transgenic rice Line 29; 6× rate): 159 |
| COCc1cnc(C2=NC(C)(C(C)C)C(=O)N2)c(C(=O)O)c1 (stereo not shown) [RAPTOR ®, imazamox] | 87 | 156 | 180 | 89 | 172 | 193 | 91 | 166 | 183 | 77 | 136 | 167 | 0 | 0 | 0 | 0 | 0 | 0 | 0 | 0 | Total No. of kernels/3 panicles ([2]; 4× rate): 0; % seed-set ([2]; 6× rate): 0%; No. filled seeds/3 panicles ([2]; 6× rate): 0; Total No. of kernels/3 panicles ([2]; 6× rate): 0; % seed-set (transgenic rice Line 29; 1× rate): 89%; No. filled seeds/3 panicles (transgenic rice Line 29; 1× rate): 161; Total No. of kernels/3 panicles (transgenic rice Line 29; 1× rate): 180; % seed-set (transgenic rice Line 29; 2× rate): 80%; No. filled seeds/3 panicles (transgenic rice Line 29; 2× rate): 137; Total No. of kernels/3 panicles (transgenic rice Line 29; 2× rate): 171; % seed-set (transgenic rice Line 29; 4× rate): 91%; No. filled seeds/3 panicles (transgenic rice Line 29; 4× rate): 152; Total No. of kernels/3 panicles (transgenic rice Line 29; 4× rate): 167; % seed-set (transgenic rice Line 29; 6× rate): 80%; No. filled seeds/3 panicles (transgenic rice Line 29; 6× rate): 125; Total No. of kernels/3 panicles (transgenic rice Line 29; 6× rate): 149 |
